Results taken from patent US20160051560A1, “TREATMENTS INVOLVING ESLICARBAZEPINE OR ESLICARBAZEPINE ACETATE” (BIAL - PORTELA & Cª, S.A., priority 2013, published 2016).

Legend:
[1] = test system: patients with acute manic (including mixed) episode, bipolar I disorder; assay: Study BIA-2093-203: 3-week double-blind, randomised, placebo-controlled, dose-titration study in acute mania; format: in vivo, human; conditions: for YMRS score absolute change from V2 (1 Day) to V7 (21 Days), Mean ± SD / YMRS score absolute change from V2 (1 Day) to V7 (21 Days), Median (range): ITT
Protocol: Two 3-week multicentre, double-blind, randomised, placebo-controlled studies in acute mania (study BIA-2093-203: dose titrated by response, eslicarbazepine acetate (ESL) 600-1800 mg or 800-2400 mg, once-daily; study BIA-2093-204: fixed doses of 600, 1200 and 1800 mg, once-daily) were followed by a recurrence prevention study consisting of a 2-week open-label period (900 mg, once-daily) continued by a double-blind, parallel-group, fixed dose (300, 900 and 1800 mg, once-daily) period for a minimum of 6 months. The primary endpoint was change in Young Mania Rating Scale (YMRS) in studies BIA-2093-203 and BIA-2093-204, and the proportion of no worsening patients in the Clinical Global Impressions-Bipolar Version (CGI-BP) in study BIA-2093-205.
Study BIA-2093-203 (EudraCT No 2005-002131-27) followed a multicentre, double-blind, randomised, parallel-group, placebo-controlled, dose-titration design.
This study was conducted at 23 centres across Europe. Patients were randomised (3:3:2) to one of the following treatment groups: (1) ESL starting with 800 mg once daily (QD) and up-titrated in 800 mg steps until 2400 mg QD (maximum dose) according to clinical response, (2) ESL starting with 600 mg QD and up-titrated in 600 mg steps until 1800 mg QD (maximum dose) according to clinical response, and (3) Placebo QD. Patients were followed for up to 3 weeks. The study schedule consisted of a screening visit (V1), randomisation visit (V2, Day 1), and subsequent visits to evaluate clinical response (V3, Day 4; V4, Day 7; V5, Day 10; V6, Day 14 and V7, Day 21). In patients showing no improvement of symptoms, the dose of study medication was increased every 3 days until the maximum doses were reached. […] At the end of the 3-week treatment period, patients who responded to treatment had the option of entering the recurrence prevention study (Study BIA-2093-205).
Studies BIA-2093-203 and BIA-2093-204 enrolled patients with ages ≧18 years, currently displaying an acute manic (including mixed) episode and with a documented diagnosis of bipolar I disorder according to the DSM-IV criteria (2). Eligible patients should have a Young Mania Rating Scale (YMRS) total score ≧20, with symptoms of the current manic episode starting within two weeks prior to randomization. Patients were excluded if they had history of schizophrenia or schizoaffective disorder, psychotic features or rapid cycling. Patients were also excluded if they were treated with carbamazepine, oxcarbazepine or a depot-neuroleptic. Previous treatment with ESL or history of unresponsiveness, intolerance or hypersensitivity to other dibenzazepine compounds (carbamazepine, oxcarbazepine or licarbazepine) also constituted criteria for exclusion. Patients with clinical relevant risk of harm to self or others and history of substance abuse were also excluded. Women were excluded if they were pregnant or breast-feeding, or if of childbearing potential they were unable to use double-barrier contraception.
The following validated instruments were used: YMRS (20), the Clinical Global Impressions-Bipolar Version (CGI-BP) scale (21) and the Montgomery-Åsberg Depression Rating Scale (MADRS) (22). The YMRS score is the sum of 11 scoring items, ranging from 0 to 60 points; higher scores indicate higher mania symptomatology (20). The CGI-BP scale measures severity and treatment-related improvement in mania, depression and overall illness categories. It comprises 3 scales: severity of illness (1—normal to 7—very severely ill, in which 3—mildly ill was used as cut-off value for statistical analysis), change from preceding phase and worst phase (1—very much improved to 7—very much worse, and 8—not applicable) (21). The MADRS score is calculated as the sum of the 10 scoring items, ranging from 0 to 60 points: higher scores indicate higher depression symptomatology (22). […]

[2] = leading to a better tolerability profile; cited from earlier work
[3] = ESL 600 mg (600-1800 mg QD titrated), n = 63
[4] = ESL 800 mg (800-2400 mg QD titrated), n = 57
[5] = ESL 800 mg, n = 57, only study 203

For `CC(=O)O[C@H]1Cc2ccccc2N(C(N)=O)c2ccccc21` [ESL, (S)-10-acetoxy-10,11-dihydro-5H-dibenz[b,f]azepine-5-carboxamide], the “MADRS scores under treatment with ESL as compared to placebo” value ([1]; ANCOVA showed no significant difference between the treatment groups at visit 7) was “apparent improvement”, the “absolute difference between ESL treatment group and placebo for the YMRS total score” value ([1]; ESL 600 mg) was 2.2 and the “YMRS score absolute change from V2 (1 Day) to V7 (21 Days), Mean ± SD” value [1, 3] was −12.2 ± 7.9. For the same compound, the “YMRS score absolute change from V2 (1 Day) to V7 (21 Days), Median (range)” value [1, 3] was −14.0 (−25.0, 14.0), the “CGI-BP score changes for mania and overall bipolar illness compared to placebo” value ([1]; ESL 600 mg group, from worst phase only) was “significant improvement” and the “absolute difference between ESL treatment group and placebo for the YMRS total score” value ([1]; ESL 800 mg) was 4.0. The “YMRS score absolute change from V2 (1 Day) to V7 (21 Days), Mean ± SD” value [1, 4] was −14.1 ± 8.9, the “YMRS score absolute change from V2 (1 Day) to V7 (21 Days), Median (range)” value [1, 4] was −16.0 (−33.0, 22.0) and the “CGI-BP score changes for mania and overall bipolar illness compared to placebo” value ([1]; ESL 800 mg group, from preceding and worst phase) was “significant improvement”. The “proportion of patients in V7 classified as normal (CGI-BP severity of illness scale) vs placebo” value ([1]; ESL 800 mg group, mania and overall bipolar illness) was “significant differences”, the “Any Adverse Events” value [1, 5] was 29 (50.9) Number (%) of patients and the Diarrhoea [1, 5] was 2 (3.5) Number (%) of patients. For the same compound, the Dizziness [1, 5] was 5 (8.8) Number (%) of patients, the Headache [1, 5] was 5 (8.8) Number (%) of patients and the Nausea [1, 5] was 4 (7.0) Number (%) of patients. For the same compound, the Paraesthesia oral [1, 5] was 0 (0.0) Number (%) of patients, the Somnolence [1, 5] was 1 (1.8) Number (%) of patients and the Vomiting [1, 5] was 2 (3.5) Number (%) of patients. The “reduction in YMRS total score as compared with placebo, statistical significance” value ([1]; ESL 600-1800 mg and ESL 800-2400 mg groups) was “None of the treatment groups showed a reduction in YMRS total score as compared with placebo that was statistically significant”, the “proportion of patients in full remission (YMRS score <12) at V7 compared to the placebo group” value ([1]; ESL 800-2400 mg group) was “significantly higher proportion of patients were in full remission” and the “response rate (≧50% improvement or <12 points in the YMRS score)” value ([1]; ESL 800-2400 mg group) was 66.7%. The “reduction in YMRS total score” value ([1]; ESL 800-2400 mg vs placebo −10.3 (p=0.0523)) was −14.2 and the “production of toxic metabolites compared to carbamazepine” value [2] was “reduced production of toxic metabolites”.
